Source: PubChem BioAssay (NCI)
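Compound exposure: 48 hours, 5 concentrations, 96-well plates. The concentration for full growth arrest is given as TGI.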

Key:
Test in all cases: inhibition of tumour cell growth, NCI panel, 48 h
[1] = system: PC-3 prostate
[2] = system: K-562 leukemia
[3] = system: UO-31 renal
[4] = system: TK-10 renal
[5] = system: OVCAR-3 ovarian
[6] = system: MOLT-4 leukemia
[7] = system: HOP-62 NSCLC
[8] = system: HCT-15 colon
[9] = system: SW-620 colon
[10] = system: SN12C renal
[11] = system: MDA-N
[12] = system: NCI-H460 lung
[13] = system: UACC-257 melanoma
[14] = system: U251 CNS
[15] = system: M14 melanoma
[16] = system: HS 578T breast
[17] = system: RPMI-8226 leukemia
[18] = system: CAKI-1 renal
[19] = system: SR leukemia
[20] = system: SF-295 CNS
[21] = system: KM12 colon
[22] = system: MDA-MB-435
[23] = system: MALME-3M melanoma
[24] = system: 786-0 renal
[25] = system: SK-MEL-5 melanoma
[26] = system: SNB-19 CNS
[27] = system: COLO 205 colon
[28] = system: SK-OV-3 ovarian
[29] = system: OVCAR-4 ovarian
[30] = system: OVCAR-8 ovarian
[31] = system: RXF 393 renal
[32] = system: IGROV1 ovarian
[33] = system: OVCAR-5 ovarian
[34] = system: SK-MEL-2 melanoma
[35] = system: A549 NSCLC
[36] = system: ACHN renal
[37] = system: LOX IMVI melanoma
[38] = system: SF-539 CNS
[39] = system: NCI/ADR-RES ovarian
[40] = system: DU-145 prostate
[41] = system: NCI-H23 lung
[42] = system: CCRF-CEM leukemia
[43] = system: BT-549 breast
[44] = system: UACC-62 melanoma
[45] = system: EKVX NSCLC
[46] = system: HL-60(TB) leukemia
[47] = system: SF-268 CNS
[48] = system: MDA-MB-231 breast
[49] = system: MCF7 breast
[50] = system: NCI-H522 lung
[51] = system: T-47D breast
[52] = system: HCT-116 colon
[53] = system: SK-MEL-28 melanoma

In the case of `C/C(=N\Nc1nc2ccccc2[nH]1)c1ccc2ccccc2n1`, the TGI [1] is reported as 5.2 µM, the TGI [2] is reported as 6.72 µM and the TGI [3] is reported as 5.1 µM. For the same compound, the TGI [4] was 13.2 µM, the TGI [5] was 2950 nM and the TGI [6] was 2640 nM. It also gave a TGI [7] of 8.12 µM, a TGI [8] of 35.2 µM and a TGI [9] of 14.6 µM. The TGI [10] was 7.57 µM, the TGI [11] was 14.8 µM and the TGI [12] was 10.4 µM. The TGI [13] was 24.9 µM, the TGI [14] was 14.3 µM and the TGI [15] was 6.47 µM. It also gave a TGI [16] of 35 µM, a TGI [17] of 3.15 µM and a TGI [18] of 1540 nM. The TGI [19] was 448 nM, the TGI [20] was 8.29 µM and the TGI [21] was 14.3 µM. The TGI [22] was 17 µM, the TGI [23] was 7.85 µM and the TGI [24] was 10.7 µM. The TGI [25] was 4.5 µM, the TGI [26] was 15.9 µM and the TGI [27] was 16.2 µM. For the same compound, the TGI [28] was 38.4 µM, the TGI [29] was 10.8 µM and the TGI [30] was greater than 100 µM. For the same compound, the TGI [31] was 13.5 µM, the TGI [32] was 8.1 µM and the TGI [33] was 10 µM. It also gave a TGI [34] of 7.23 µM, a TGI [35] of 10.2 µM and a TGI [36] of 24.2 µM. The TGI [37] was 10.2 µM, the TGI [38] was 20.1 µM and the TGI [39] was 7.63 µM. The TGI [40] was 5.88 µM, the TGI [41] was 16.1 µM and the TGI [42] was 3.87 µM. For the same compound, the TGI [43] was greater than 100 µM, the TGI [44] was 9.25 µM and the TGI [45] was 5.97 µM. For the same compound, the TGI [46] was 5.04 µM, the TGI [47] was 14.3 µM and the TGI [48] was 12.5 µM. The TGI [49] was 13.8 µM, the TGI [50] was 8.85 µM and the TGI [51] was 3.74 µM. The TGI [52] was 7.48 µM and the TGI [53] was 23 µM.
